Test results: article PMC7562719, “Discovery of a CNS penetrant small molecule SMN2 splicing modulator with improved tolerability for spinal muscular atrophy” (Scientific Reports, 2020)
Like-named read-outs stand apart in the source and are kept apart here.

Experiments:
SMNΔ7 mice = test: murine model of SMA (SMNΔ7 mice): survival, body weight, righting reflex; type: in vivo, mouse; conditions: for SMA mice that survived / survivors at P65 / total mice: 20 mg/kg; for survivors at P65 / total mice: SMA mice
Procedure: A pair of heterozygous SMNΔ7 mice[28] (mSmn+/−, SMN2+/+, SMNΔ7+/+) were purchased from Jackson Laboratory (USA, stock number 005025). The homozygous SMNΔ7 mice (affected and referred to as “SMNΔ7 mice”; mSmn−/−, SMN2+/+, SMNΔ7+/+) was generated by cross-bleeding of heterozygous SMNΔ7 mice. All experiments were approved and monitored by the animal experiment committee of Gifu Pharmaceutical University and were performed after approval by the Bioethics and Biosafety Committee of Gifu Pharmaceutical University. All procedures relating to animal care and treatment confirmed to animal care guidelines issued by the National Institutes of Health.
SMNΔ7 mice were treated with 2, 6, and 20 mg/kg TEC-1 (succinate) once a day by intraperitoneal injection (TERUMO, Japan) from P2 to P23. TEC-1 was diluted in 0.9% NaCl (aqueous) for intraperitoneal injection. After P24, TEC-1 was administrated one a day orally using 0.4 × 0.7 mm feeding needle (Primetech Corporation, Japan). For oral administration, TEC-1 was diluted in distilled water (Otsuka Pharmaceutical Factory, Japan). Heterozygous mice received equal volumes of vehicle.
Survival and body weight were assessed daily. Righting reflex test[15] tests were performed […] at P6, 11 and 16. Righting time was defined as the time it took a pup to turn over to its front after being placed completely on its back (maximum 60 s). Dead individuals were set to 60 s.

TK6 cells = system: TK6 cells
Procedure: These articles have been recommended for use in the OECD test guideline (Test No. 487)[49]. For metabolic activation, pre-cultured TK6 cells with the culture medium were supplemented with Sprague–Dawley rat liver mix (S9 mix, IEDA TRADING CORPORATION, Japan) at 3.33 vol%. Then, compound was mixed with the cell suspension and treated under the following treatment conditions: • Short-term treatment for 3 h without S9 mix, followed by a 21-h culture (−S9 mix assay), • Short-term treatment for 3 h with S9 mix, followed by a 21-h culture (+S9 mix assay), or • Continuous treatment for 24 h without S9 mix (24-h assay). For treatment conditions 1 and 2, the cells in each well were centrifuged after the 3-h treatment, the supernatants were discarded, and the cells were washed twice with culture medium. The cells were further cultured with fresh culture medium for 21 h. The compound-treated cells were examined by the unaided eye for precipitation of compound at the start and end of treatment. After treatment, the rest of each cell suspension was centrifuged and then the cells were suspended in a 0.075 mol/L KCl solution at room temperature for 10 min. Then, 25 vol% acetic acid containing methanol was added and the centrifuged cells were fixed. The fixed cells were resuspended in a small amount of 3 vol% acetic acid containing methanol, which was changed two times by centrifugation. Finally, a drop of the cell suspension was transferred onto a slide and dried at room temperature. The slides were stained at room temperature in a 3 vol% Giemsa solution (Merck KGaA) diluted with Sörensen phosphate buffer (1/15 mol/L, pH 6.8, Muto Pure Chemicals Co. Ltd.). Four slides per dose (2 slides per well) were prepared. Each slide was coded randomly. The test was conducted at the following doses of TEC-1. -S9 mix assay: 1.5, 1.7, 1.9, 2.1, 2.3, 2.5, 2.7, 2.9, and 3.1 µg/mL, + S9 mix assay: 1.9, 2.1, 2.3, 2.5, 2.7, 2.9, 3.1, 3.3, and 3.5 µg/mL, 24-h assay: 0.9, 1.1, 1.3, 1.5, 1.7, 1.9, 2.1, 2.3, and 2.5 µg/mL. To perform scoring for compound and negative control groups, the number of cells in the suspensions was counted using a Coulter Counter (Z2; Beckman Coulter, Inc.). The positive control groups were not determined. A portion (0.5 mL) of the cell suspension was diluted with 20 mL of Isoton II, and 0.5 mL of this solution was used for cell counts. The cell number per 1 mL at each culture was calculated by the following formula. Cellnumber/mL=Dilutionfactor×valueof1stcount+valueof2ndcount/2×2
The population doubling (PD) and relative population doubling (RPD) at each concentration was calculated by the following formula. PD=log10cell number at the end of culture/cell number at the start of treatment∗/log102∗:1×10^5cells/mL.
RPD%=PD of the compound-treated group/PD of the negative control group×100 For the treated groups, the 3 consecutive concentrations were selected as follows. […] For all concentrations, 4000 mononuclear cells with cytoplasm were analyzed and the number of cells with micronucleus (micronuclei) was counted using a microscope (× 600). Micronucleus is identified as a round or oval small nucleus in the cytoplasm with the same staining intensity as the main nucleus. The diameter of each micronucleus should be less than 1/2 of the diameter of the main nucleus. Two investigators observed the slides. Each investigator scored 1000 cells for the frequency of micronucleated cells. Data from the two investigators were combined for each culture and the combined data from duplicate cultures were pooled for each concentration for each treatment condition. A cell having one or more micronuclei was recorded as a micronucleated cell.

## Cc1cn2nc(-c3nc4ccc(N5CCN(C)CC5)cc4c(=O)[nH]3)cc2c(C)n1 [TEC-1, 2-(4,6-dimethylpyrazolo[1,5-a]pyrazin-2-yl)-6-(4-methylpiperazin-1-yl)quinazolin-4(3H)-one]
SMNΔ7 mice; 2 mg/kg, P16
  righting reflex latency compared to vehicle-treated mice: significantly shortened latency time
SMNΔ7 mice; administered intraperitoneally throughout
  SMA mice that survived: 66%
SMNΔ7 mice; oral administration after weaning
  SMA mice that survived: 40%
SMNΔ7 mice; 2, 6, 20 mg/kg once a day
  body mass compared to vehicle-treated SMNΔ7 mice: increased body mass
SMNΔ7 mice; 2, 6, 20 mg/kg once a day, Kaplan–Meier to P65
  survival compared with vehicle-treated SMNΔ7 mice: enhanced the survival
SMNΔ7 mice; 20 mg/kg once daily (i.p. P2-P23, then p.o.)
  survivors at P65 / total mice: 4 of 10
SMNΔ7 mice; 20 mg/kg once daily (i.p.-i.p.), TEC-1 succinate
  survivors at P65 / total mice: 2 of 3
SMNΔ7 mice; all SMA model mice, 20 mg/kg intraperitoneally
  survival until weaning: survived until weaning
TK6 cells
  micronucleus induction, overall conclusion: do not induce micronucleation
TK6 cells; 24-h assay condition, culture medium
  concentration at which precipitation was noted: ≥ 1500 ng/mL
TK6 cells; human, 3 h
  concentration at which cytotoxicity (RPD of less than 50%) was noted: ≥ 2300 ng/mL
TK6 cells; human, 3 h, 1.9 µg/mL
  Micronucleated cells (%): (0.73) %
  Micronucleated cells Total: 29
  Micronucleated cells Well 1: 13
  Micronucleated cells Well 2: 16
  Relative population doubling: 68.6%
TK6 cells; human, 3 h, 2.1 µg/mL
  Micronucleated cells (%): (0.9) %
  Micronucleated cells Total: 36
  Micronucleated cells Well 1: 16
  Micronucleated cells Well 2: 20
  Relative population doubling: 65.4%
TK6 cells; human, 3 h, 2.3 µg/mL
  Micronucleated cells (%): (1.4) **^,## %
  Micronucleated cells Total: 56
  Micronucleated cells Well 1: 29
  Micronucleated cells Well 2: 27
  Relative population doubling: 35.0%
TK6 cells; human, 24 h, 1.1 µg/mL
  Micronucleated cells (%): (0.85) %
  Micronucleated cells Total: 34
  Micronucleated cells Well 1: 21
  Micronucleated cells Well 2: 13
  Relative population doubling: 81.7%
TK6 cells; human, 24 h, 1.3 µg/mL
  Micronucleated cells (%): (0.73) %
  Micronucleated cells Total: 29
  Micronucleated cells Well 1: 17
  Micronucleated cells Well 2: 12
  Relative population doubling: 74.4%
TK6 cells; human, 24 h, 1.5 µg/mL
  Micronucleated cells (%): (0.8) %
  Micronucleated cells Total: 32
  Micronucleated cells Well 1: 17
  Micronucleated cells Well 2: 15
  Relative population doubling: 69.5%
